Assays:
cell surface Grp94 = experiment: Cell-surface Grp94 of mouse embryonic fibroblasts; assay type: cell-based; conditions: MEFs 14 days after Etoposide treatment compared to growing MEFs
Protocol: FIGS. 4A-E. Extracellular Grp94 on senescent cells mediate cytotoxicity of innate components in-vitro. (A) Western blot analysis for Grp94/β-Tubulin in Etoposide-treated IMR90 cells 4 days after transfection with siControl or siHSP90B1 (HSP90B1 is a gene coding for Grp94). (B) PrestoBlue viability assay for Etoposide-treated IMR90 4 days after Transfection with siControl or siHSP90B1. (C) Cytotoxicity of NK92 cells in cultures of IMR90 cells treated with siControl or siHSP90B1. NK92 were added for 1 hour at a ratio of 1:3 (D) Crystal Violet staining for IMR90 cells after co-culturing with MM6 monocytes in the presence of GPM1. (E) Quantitative analysis of cell-surface Grp94 of Mouse embryonic fibroblasts (MEFs) 14 days after Etoposide treatment compared to growing MEFs.
The levels of cell surface Grp94 were also examined in mouse embryonic fibroblast cells (MEFs). […] The relatively high correlation between localization of Grp94 in human and mouse cells implies that it may serve as a new marker for senescent cells.

cell-surface Grp94 = biological target: T1, cell-surface Grp94 (Homo sapiens, UniProt P14625); experiment: Flow cytometry of cell-surface Grp94 on live IMR90 cells; assay type: cell-based; conditions: 3 days after etoposide treatment
T1 construct: cell-surface Grp94 of live senescent etoposide-treated IMR90 cells after 24 hrs treatment with 10 or 100 μM GPM1; endogenous in cells; host or cells: IMR-90 human fibroblasts (ATCC), made senescent with etoposide
T1 sequence (P14625 22-803): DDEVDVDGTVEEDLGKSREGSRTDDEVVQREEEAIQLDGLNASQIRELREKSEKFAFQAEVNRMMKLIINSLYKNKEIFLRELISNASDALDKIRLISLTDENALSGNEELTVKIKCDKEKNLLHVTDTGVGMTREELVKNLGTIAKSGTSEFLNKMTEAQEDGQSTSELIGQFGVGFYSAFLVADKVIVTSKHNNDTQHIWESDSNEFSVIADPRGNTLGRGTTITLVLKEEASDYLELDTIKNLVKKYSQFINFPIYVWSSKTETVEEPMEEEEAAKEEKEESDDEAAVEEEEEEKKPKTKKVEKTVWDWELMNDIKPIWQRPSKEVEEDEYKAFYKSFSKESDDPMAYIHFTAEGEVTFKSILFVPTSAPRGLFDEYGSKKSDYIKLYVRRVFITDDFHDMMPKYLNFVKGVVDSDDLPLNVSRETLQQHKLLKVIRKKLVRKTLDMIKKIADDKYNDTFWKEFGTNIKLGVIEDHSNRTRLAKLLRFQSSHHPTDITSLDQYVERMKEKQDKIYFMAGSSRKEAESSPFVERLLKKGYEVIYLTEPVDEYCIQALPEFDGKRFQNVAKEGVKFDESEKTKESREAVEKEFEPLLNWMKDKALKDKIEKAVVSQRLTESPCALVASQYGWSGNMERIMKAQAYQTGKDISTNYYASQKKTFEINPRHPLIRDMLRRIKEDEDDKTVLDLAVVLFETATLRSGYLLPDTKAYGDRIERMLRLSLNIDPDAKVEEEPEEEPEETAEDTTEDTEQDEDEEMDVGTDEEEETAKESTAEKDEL
Text: FIGS. 3A-F. Grp94 translocates to cell-surface of senescent cells. (A) Flow cytometry histogram for the frequency cell-surface Grp94 of live IMR90 cells 0, 3, 7, 14, or 21 days after etoposide treatment. (B) Quantitative analysis of cell-surface Grp94 on live IMR90 cells 0, 3, 7, 14, or 21 days after etoposide treatment. (C) Scheme describing the mechanism of GPM1-mediated blockage of Grp94 translocation to cell-surface. (D) PrestoBlue viability assay for IMR90 growing or senescent Etoposide-treated cells after 24 hrs treatment with 1, 10, or 100 μM GPM1. […] (E) Flow cytometry histogram for the frequency of cell-surface Grp94 of live senescent etoposide-treated IMR90 cells after 24 hrs treatment with 10 or 100 μM GPM1. (F) Quantitative analysis of cell-surface Grp94 on live senescent etoposide-treated IMR90 cells after 24 hrs treatment with 10 or 100 μM GPM1.
IMR-90 cells were gently dissociated from plates using TripLE express reagent (12604-013, Thermo Fisher Scientific), and maintained in cold FACS buffer (PBS containing 1% FCS and 0.1% Sodium Azid) throughout all procedure. […] Cells were analyzed in a SORP-LSRII instrument (BD Biosciences). […] Cells were gated by their size (FSC/SSC), DAPI negative (live cells) and then analyzed for their fluorescence intensity at the wavelength of 647 (cell-surface Grp94 level), using FlowJo v10 software.

COc1cc([C@@H]2c3cc4c(cc3[C@@H](O[C@@H]3O[C@@H]5CO[C@@H](C)O[C@H]5[C@H](O)[C@H]3O)[C@H]3COC(=O)[C@H]23)OCO4)cc(OC)c1O [etoposide]
cell surface Grp94 (cell surface Grp94): significant elevation | cell-surface Grp94 levels (cell-surface Grp94): not elevated
